Data taken from patent US10519169B2, “3-(1H-pyrrolo[2,3-C]pyridin-2-yl)-1 H-pyrazolo[4,3-B]pyridines and therapeutic uses thereof” (Samumed, LLC, priority 2015, dated 2019).

Experiments:
Format in all cases: cell-based
[1] = test system: primary human fibroblasts derived from IPF patients (LL29 cells) treated with TGF-β1; assay: Inhibition of fibrotic process, αSMA staining in TGF-β1 treated LL29 fibroblasts; settings: Fibroblast; for EC50: 96 h, TGF-β1 20 ng/mL, 4 days, % cells positive for αSMA
Description: Representative compounds were screened using primary human fibroblasts (derived from IPF patients) treated with TGF-β1 to determine their ability to inhibit the fibrotic process.
Primary human fibroblasts derived from IPF patients (LL29 cells) [^1Xiaoqiu Liu, et. al., “Fibrotic Lung Fibroblasts Show Blunted Inhibition by cAMP Due to Deficient cAMP Response Element-Binding Protein Phosphorylation”, Journal of Pharmacology and Experimental Therapeutics (2005), 315(2), 678-687; ^2Watts, K. L., et. al., “RhoA signaling modulates cyclin D1 expression in human lung fibroblasts; implications for idiopathic pulmonary fibrosis”, Respiratory Research (2006), 7(1), 88] were obtained from American Type Culture Collection (ATCC) and expanded in F12 medium supplemented with 15% Fetal Bovine Serum and Penicillin/Streptomycin.
Each compound was dissolved in DMSO as a 10 mM stock and used to prepare compound source plates. Serial dilution (1:2, 11-point dose-response curves from […] to […]) and compound transfer was performed using the ECHO 550 (Labcyte, Sunnyvale, Calif.) into 384-well clear bottom assay plates (Greiner Bio-One) with appropriate DMSO backfill for a final DMSO concentration of 0.1%. LL29 cells are plated at 1,500 cells/well in 80 μL/well F12 medium supplemented with 1% Fetal Bovine Serum. One hour after addition of the cells, TGF-β1 (Peprotech; 20 ng/mL) was added to the plates to induce fibrosis (ref. 1 and 2 above). Wells treated with TGF-β1 and containing DMSO were used as controls. Cells were incubated at 37° C. and 5% CO2 for 4 days. Following incubation for 4 days, SYTOX green nucleic acid stain (Life Technologies [Thermo Fisher Scientific]) was added to the wells at a final concentration of 1 μM and incubated at room temperature for 30 min. Cells were then fixed using 4% formaldehyde (Electron Microscopy Sciences), washed 3 times with PBS followed by blocking and permeabilization using 3% Bovine Serum Albumin (BSA; Sigma) and 0.3% Triton X-100 (Sigma) in PBS. Cells were then stained with antibody specific to α-smooth muscle actin (aSMA; Abcam) (ref. 1 and 2 above) in 3% Bovine Serum Albumin (BSA; Sigma) and 0.3% Triton X-100 (Sigma) in PBS, and incubated overnight at 4° C. Cells were then washed 3 times with PBS, followed by incubation with Alexa Flor-647 conjugated secondary antibody (Life Technologies [Thermo Fisher Scientific]) and DAPI at room temperature for 1 hour. Cells were then washed 3 times with PBS and plates were sealed for imaging. aSMA staining was imaged by excitation at 630 nm and emission at 665 nm and quantified using the Compartmental Analysis program on the CellInsight CX5 (Thermo Scientific). Dead or apoptotic cells were excluded from analysis based on positive SYTOX green staining. % of total cells positive for aSMA were counted in each well and normalized to the average of 11 wells treated with TGF-β1 on the same plate using Dotmatics' Studies Software. The normalized averages (fold change over untreated) of 3 replicate wells for each compound concentration were used to create dose-responses curves and EC50 values were calculated using non-linear regression curve fit in the Dotmatics' Studies Software. For EC50 of >10 μM, the percent inhibition at 10 μM is provided.

[2] = test system: SW480 colon cancer cells; assay: Cell viability assay (CellTiter-Blue), SW480 cells; settings: Homo sapiens, 96 h, four days, CellTiter-Blue
Experimental: Representative compounds were screened using the following assay procedure to assess the effect on cell viability as described below.
Each compound was dissolved in DMSO as a 10 mM stock and used to prepare compound source plates. Serial dilution (1:3, 8-point dose-response curves from […]) and compound transfer was performed using the ECHO 550 (Labcyte, Sunnyvale, Calif.) into 96-well clear bottom, black-walled plates (Corning-Costar).
Approximately 2×10^3 SW480 colon cancer cells were seeded into each well and allowed to incubate in the presence or absence of compound for four days at 37° C./5% CO2. Eight replicates of DMSO-treated cells served as controls and cells treated with compound were performed in duplicate.
After incubation, 20 μL of CellTiter-Blue (Promega) was added to each well allowed to incubate for approximately 3 hours. This reagent was a buffered solution which contains resazurin, metabolically active cells were able to reduce rezarurin (blue) into resorufin (pink) which was highly fluorescent. This measured fluorescence was used as a readout for cell viability.
After incubation, the plates were read at Ex 560 nm Em 590 nm (Cytation 3, BioTek). Dose-response curves were generated and EC50 concentration values were calculated using non-linear regression curve fit in the GraphPad Prism (San Diego, Calif.) or Dotmatics' Studies Software (Bishops Stortford, UK). For EC50 of >10 μM, the percent inhibition at 10 μM is provided.

[3] = test system: Wnt activity (Sp5-Luc reporter, TCF/LEF binding sites) in SW480 colon carcinoma cells; assay: Wnt activity screening assay, Sp5-Luc reporter gene in SW480 cells; settings: Homo sapiens; for EC50: overnight incubation
Description: The screening assay for Wnt activity is described as follows. Reporter cell lines can be generated by stably transducing cancer cell lines (e.g., colon cancer) or primary cells (e.g., IEC-6 intestinal cells) with a lentiviral construct that includes a Wnt-responsive promoter driving expression of the firefly luciferase gene.
SW480 colon carcinoma cells were transduced with a lentiviral vector expressing luciferase with a human Sp5 promoter consisting of a sequence of eight TCF/LEF binding sites. SW480 cells stably expressing the Sp5-Luc reporter gene and a hygromycin resistance gene were selected by treatment with 150 μg/mL of hygromycin for 7 days. These stably transduced SW480 cells were expanded in cell culture and used for all further screening activities. Each compound was dissolved in DMSO as a 10 mM stock and used to prepare compound source plates. Serial dilution (1:3, 10-point dose-response curves starting from 10 μM) and compound transfer was performed using the ECHO 550 (Labcyte, Sunnyvale, Calif.) into 384-well white solid bottom assay plates (Greiner Bio-One) with appropriate DMSO backfill for a final DMSO concentration of 0.1%. For Sp5-Luc reporter gene assays, the cells were plated at 4,000 cells/well in 384-well plates with medium containing 1% fetal bovine serum and incubated overnight at 37° C. and 5% CO2. Following incubation, 20 μl of BrightGlo luminescence reagent (Promega) was added to each well of the 384-well assay plates. The plates were placed on an orbital shaker for 2 min and then luminescence was quantified using the Envision (Perkin Elmer) plate reader. Readings were normalized to DMSO only treated cells, and normalized activities were utilized for EC50 calculations using the dose-response log (inhibitor) vs. response-variable slope (four parameters) nonlinear regression feature available in GraphPad Prism 5.0 (or Dotmatics). For EC50 of >10 μM, the percent inhibition at 10 μM is provided.

[4] = test system: IL-6; assay: IL-6 inhibition in LPS-stimulated THP-1 cells (HTRF); settings: Homo sapiens; for EC50: LPS 500 ng/mL, 22 hours, IL6 HTRF; for inhibition at 10 µM: given for EC50 >10 μM, LPS, IL6, at 10 M [sic], read-out: percent inhibition at 10 M
Experimental: Human monocyte cell line (THP-1 cells; Catalog # TIB-202, ATCC, Manassas, Va.) were cultured in Roswell Park Memorial Institute (RPMI) 1640 Medium (Catalog #21870-100, Buffalo, N.Y.) with 1% L-glutamine, 1% HEPES, 1% Sodium Pyruvate, 2% Sodium Bicarbonate supplemented with 100 units/mL penicillin, 50 μg/mL streptomycin, 2-mercaptoethanol (0.05 mM) [basal medium] and 10% fetal bovine serum (Catalog #16140089, Life Technologies, Carlsbad, Calif.) at 37° C. and 5% CO2.
THP-1 cells were cultured in basal media with 1% FBS for 24 hours before the start of the assay. Each compound was dissolved in DMSO as a 10 mM stock and used to prepare compound source plates. Serial dilution (1:3, 10-point dose-response curves starting from 10 μM) and compound transfer was performed using the ECHO 550 (Labcyte, Sunnyvale, Calif.) into 384-well white low volume assay plates (Greiner Bio-One) with appropriate DMSO backfill for a final DMSO concentration of 0.1%. THP-1 cells were plated at 5000 cells/well in the 384-well plates and incubated at 37° C. for 2 h. 500 ng/mL of LPS was added after 2 hours and cells were incubated for another 22 hours at 37° C. Plates were spun in a centrifuge for 1 minute at […] and a mixture of anti-IL6 XL665, and anti-IL6 Cryptate diluted in reconstitution buffer (Cisbio Inc.) was added to each well. Following incubation for 3 hrs at room temperature, Homogeneous Time-Resolved Fluorescence (HTRF) was measured using the Envision (Perkin Elmer) at 665 nm and […]. The ratio of fluorescence at 665 nm to 620 nm was used as a readout for IL6 quantification. All samples were processed in duplicate. Readings were normalized to DMSO treated cells and normalized activities were utilized for EC50 calculations using the dose-response log (inhibitor) vs. response-variable slope (four parameters) nonlinear regression feature available in GraphPad Prism 5.0 (or Dotmatics). For EC50 of >10 μM, the percent inhibition at […] is provided.

EC50 [2]	EC50 [3]	EC50 [4]	Structure (SMILES)	EC50 [1]	inhibition at 10 µM [4]	inhibition at 10 µM ([1]; given for EC50 >10 μM, TGF-β1, αSMA, 10 μM, read-out: percent inhibition at 10 μM)	inhibition at 10 µM ([3]; given for EC50 >10 μM, 10 μM, read-out: percent inhibition at 10 μM)
1210 nM	1970 nM	228 nM	CC(C)(C)C(=O)Nc1cncc(-c2ccc3[nH]nc(-c4cc5c(-c6cccc(F)c6)cncc5[nH]4)c3n2)c1 [Compound 8, N-(5-(3-(4-(3-Fluorophenyl)-1H-pyrrolo[2,3-c]pyridin-2-yl)-1H-pyrazolo [4,3-b]pyridin-5-yl)pyridin-3-yl)pivalamide]	2310 nM			
1070 nM	1460 nM	> 10000 nM	O=C(Nc1cncc(-c2ccc3[nH]nc(-c4cc5c(-c6cccc(F)c6)cncc5[nH]4)c3n2)c1)C1CCCCC1 [Compound 23, N-(5-(3-(4-(3-Fluorophenyl)-1H-pyrrolo[2,3-c]pyridin-2-yl)-1H-pyrazolo [4,3-b]pyridin-5-yl)pyridin-3-yl)cyclohexanecarboxamide]	718 nM	1%		
1120 nM	2320 nM	> 10000 nM	Fc1ccc(-c2cncc3[nH]c(-c4n[nH]c5ccc(-c6ccccn6)nc45)cc23)cc1 [Compound 56, 3-(4-(4-Fluorophenyl)-1H-pyrrolo[2,3-c]pyridin-2-yl)-5-(pyridin-2-yl)-1H-pyrazolo[4,3-b]pyridine]	1300 nM	32.6%		
413 nM	702 nM	85 nM	CC(C)CC(=O)Nc1cncc(-c2ccc3[nH]nc(-c4cc5c(-c6ccccc6F)cncc5[nH]4)c3n2)c1 [Compound 58, N-(5-(3-(4-(2-Fluorophenyl)-1H-pyrrolo[2,3-c]pyridin-2-yl)-1H-pyrazolo [4,3-b]pyridin-5-yl)pyridin-3-yl)-3-methylbutanamide]	697 nM			
897 nM	1420 nM	157 nM	O=C(Nc1cncc(-c2ccc3[nH]nc(-c4cc5c(-c6ccccc6F)cncc5[nH]4)c3n2)c1)C1CC1 [Compound 76, N-(5-(3-(4-(2-Fluorophenyl)-1H-pyrrolo[2,3-c]pyridin-2-yl)-1H-pyrazolo [4,3-b]pyridin-5-yl)pyridin-3-yl)cyclopropanecarboxamide]	2040 nM			
6720 nM	3980 nM	5790 nM	Fc1ccccc1-c1cncc2[nH]c(-c3n[nH]c4ccc(-c5cncc(CNCc6ccccc6)c5)nc34)cc12 [Compound 80, N-Benzyl-1-(5-(3-(4-(2-fluorophenyl)-1H-pyrrolo[2,3-c]pyridin-2-yl)-1H-pyrazolo[4,3-b]pyridin-5-yl)pyridin-3-yl)methanamine]	4600 nM			
1380 nM	1730 nM	120 nM	CC(C)Nc1cncc(-c2ccc3[nH]nc(-c4cc5c(-c6cccnc6)cncc5[nH]4)c3n2)c1 [Compound 96, N-Isopropyl-5-(3-(4-(pyridin-3-yl)-1H-pyrrolo[2,3-c]pyridin-2-yl)-1H-pyrazolo[4,3-b]pyridin-5-yl)pyridin-3-amine]	> 10000 nM		0%	
3580 nM	8450 nM	873 nM	CCNCc1cncc(-c2ccc3[nH]nc(-c4cc5ccncc5[nH]4)c3n2)c1 [Compound 258, N-((5-(3-(1H-Pyrrolo[2,3-c]pyridin-2-yl)-1H-pyrazolo[4,3-b]pyridin-5-yl)pyridin-3-yl)methyl)ethanamine]	6630 nM			
7840 nM	> 10000 nM	456 nM	c1cc(-c2cncc3[nH]c(-c4n[nH]c5ccc(-c6cncc(CNCC7CCCC7)c6)nc45)cc23)co1 [Compound 333, 1-Cyclopentyl-N-((5-(3-(4-(furan-3-yl)-1H-pyrrolo[2,3-c]pyridin-2-yl)-1H-pyrazolo[4,3-b]pyridin-5-yl)pyridin-3-yl)methyl)methanamine]	1500 nM			25.5%
